Measurements: patent US8841301B2, “Selective NR2B antagonists” (Bristol-Myers Squibb Company, priority 2011, dated 2014)
Where a name gives a salt, the structure may show the parent alone. Read-outs that look alike come from different tables or passages of the source.

Target: hNR2B (Homo sapiens, UniProt Q05586+Q13224)
Assay: Electrophysiology NMDA receptor experiments: two electrode voltage-clamp in Xenopus laevis oocytes expressing GluN1/GluN2 subunits
Assay type: cell-based
Settings: oocytes voltage clamped at −40 mV, 50 μM glutamate, 30 μM glycine
Procedure: Electrophysiology NMDA Receptor Experiments.
Stage V and VI oocytes were surgically removed from the ovaries of large, well-fed and healthy Xenopus laevis anesthetized with 3-amino-benzoic acid ethyl ester (3 gm/l). Clusters of isolated oocytes were incubated with 292 U/ml Worthington (Freehold, N.J.) type IV collagenase or 1.3 mg/ml collagenase (Life Technologies, Gaithersburg, Md.; 17018-029) for 2 hr in Ca^2+-free solution comprised of (in mM) 115 NaCl, 2.5 KCl, and 10 HEPES, pH 7.5, with slow agitation to remove the follicular cell layer. Oocytes were then washed in the same solution supplemented with 1.8 mM CaCl2 and maintained in Barth's solution comprised of (in mM): 88 NaCl, 1 KCl, 2.4 NaHCO3, 10 HEPES, 0.82 MgSO4, 0.33 Ca(NO3)2, and 0.91 CaCl2 and supplemented with 100 μg/ml gentamycin, 10 μg/ml streptomycin, and 10 μg/ml penicillin. Oocytes were manually defolliculated and injected within 24 hrs of isolation with 3-5 ng of human GluN1 subunit cRNA and 7-10 ng of human GluN2 cRNA subunit in a 50 nl volume, and incubated in Barth's solution at 18° C. for 2-7 d. Glass injection pipettes had tip sizes ranging from 10-20 microns, and were backfilled with mineral oil. cRNA was synthesized from linearized template cDNA for rat glutamate receptor subunits according to manufacturer specifications (Ambion).
Two electrode voltage-clamp recordings were made 2-7 days post-injection. Oocytes were placed in a dual-track plexiglass recording chamber with a single perfusion line that splits in a Y-configuration to perfuse two oocytes. Dual recordings were made at room temperature (23° C.) using two Warner OC725B two-electrode voltage clamp amplifiers, arranged as recommended by the manufacturer. Glass microelectrodes (1-10 Megaohms) were filled with 300 mM KCl (voltage electrode) or 3 M KCl (current electrode). The bath clamps communicated across silver chloride wires placed into each side of the recording chamber, both of which were assumed to be at a reference potential of 0 mV. Oocytes were perfused with a solution comprised of (in mM) 90 NaCl, 1 KCl, 10 HEPES, […] and 0.5 BaCl2; pH 7.4, adjusted by addition of NaOH. Oocytes were recorded under voltage clamp at −40 mV. Final concentrations for glutamate and glycine were 50 μM and 30 μM, respectively. Concentration-response curves for experimental compounds were obtained by applying in successive fashion maximal glutamate/glycine, followed by glutamate/glycine plus variable concentrations of experimental compounds. Dose response curves consisting of four to eight concentrations were obtained in this manner. The baseline leak current at −40 mV was measured before and after recording, and the full recording linearly corrected for any change in leak current. The level of inhibition by applied experimental compounds was expressed as a percent of the initial glutamate response, and averaged together across oocytes from multiple experiments. Results were pooled, and the average percent responses at antagonist concentrations were fit by the equation, Percent Response=(100−minimum)/(1+([conc]/IC50)^nH)+minimum where minimum is the residual percent response in saturating concentration of the experimental compounds, IC50 is the concentration of antagonist that causes half of the achievable inhibition, and nH is a slope factor describing steepness of the inhibition curve. […]
For NMDA receptor subtype selectivity experiments human GluN1/GluN2A, GluN1/GluN2C, and GluN1/GluN2D cRNAs were expressed in Xenopus laevis as described above. Here, 10 μM concentrations of the antagonist was perfused with 50 μM glutamate and 30 μM glycine onto the oocyte for two min and the remaining current in the presence of the antagonist was compared to the maximal current obtained with 50 μM glutamate and 30 μM glycine alone (defined as 100%). When IC50 determinations were made against other NMDA receptor subtypes the protocol as described above was followed. […]

hNR2B, sequence (Q13224 27-1484, other chains not shown): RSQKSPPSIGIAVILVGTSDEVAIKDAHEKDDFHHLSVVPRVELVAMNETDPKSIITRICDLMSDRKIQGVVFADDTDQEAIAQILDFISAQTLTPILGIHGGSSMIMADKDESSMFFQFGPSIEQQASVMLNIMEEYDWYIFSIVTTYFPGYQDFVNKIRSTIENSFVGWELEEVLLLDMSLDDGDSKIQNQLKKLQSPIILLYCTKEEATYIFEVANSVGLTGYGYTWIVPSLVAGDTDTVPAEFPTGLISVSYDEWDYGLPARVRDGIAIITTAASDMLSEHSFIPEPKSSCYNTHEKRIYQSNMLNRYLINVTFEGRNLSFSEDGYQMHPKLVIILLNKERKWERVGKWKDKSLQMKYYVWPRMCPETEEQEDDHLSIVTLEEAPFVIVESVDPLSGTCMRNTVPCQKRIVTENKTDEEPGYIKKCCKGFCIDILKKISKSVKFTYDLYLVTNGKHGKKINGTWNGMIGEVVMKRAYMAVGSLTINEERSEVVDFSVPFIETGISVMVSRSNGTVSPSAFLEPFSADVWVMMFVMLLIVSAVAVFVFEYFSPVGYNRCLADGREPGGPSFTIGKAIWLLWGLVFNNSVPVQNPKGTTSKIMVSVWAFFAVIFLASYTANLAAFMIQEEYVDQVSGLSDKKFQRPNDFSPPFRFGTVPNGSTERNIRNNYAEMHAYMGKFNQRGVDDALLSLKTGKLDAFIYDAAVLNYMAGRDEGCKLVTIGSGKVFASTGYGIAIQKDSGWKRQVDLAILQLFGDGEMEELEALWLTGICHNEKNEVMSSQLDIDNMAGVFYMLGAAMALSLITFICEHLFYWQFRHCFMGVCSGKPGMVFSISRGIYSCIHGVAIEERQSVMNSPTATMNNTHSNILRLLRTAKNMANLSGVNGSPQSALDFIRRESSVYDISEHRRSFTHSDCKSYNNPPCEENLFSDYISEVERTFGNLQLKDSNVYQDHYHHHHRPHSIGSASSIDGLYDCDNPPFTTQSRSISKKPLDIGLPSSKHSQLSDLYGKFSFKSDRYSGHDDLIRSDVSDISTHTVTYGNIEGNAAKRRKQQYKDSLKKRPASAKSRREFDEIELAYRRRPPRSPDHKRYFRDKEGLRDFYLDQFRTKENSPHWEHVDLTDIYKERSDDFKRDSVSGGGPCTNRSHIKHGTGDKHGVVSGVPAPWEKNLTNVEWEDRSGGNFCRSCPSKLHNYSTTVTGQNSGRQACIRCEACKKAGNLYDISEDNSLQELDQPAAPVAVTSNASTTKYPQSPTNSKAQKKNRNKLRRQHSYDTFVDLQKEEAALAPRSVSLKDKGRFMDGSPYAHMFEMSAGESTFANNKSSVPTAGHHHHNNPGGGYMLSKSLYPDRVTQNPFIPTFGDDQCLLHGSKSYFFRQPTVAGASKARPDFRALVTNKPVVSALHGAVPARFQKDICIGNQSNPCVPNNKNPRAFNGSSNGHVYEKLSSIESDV

IC50 (read-out: Rating (hNR2B IC50)) [nM]	IC50 (read-out: hNR2B IC50) [nM]	Structure (SMILES)
< 200		Cc1nc(Nc2ccc(Cl)cc2)ncc1COc1ccc2[nH]c(=O)ccc2c1 [Example 51]
< 200		Cc1nc(Nc2ccc(OC(F)F)cc2)ncc1COc1ccc2[nH]c(=O)ccc2c1 [Example 52]
< 200		O=c1ccc2cc(OCc3cnc(Nc4ccc(OC(F)F)cc4)nc3C(F)(F)F)ccc2[nH]1 [Example 53]
< 200		O=c1ccc2cc(OCc3cnc(Nc4ccc(Cl)cc4)nc3C(F)(F)F)ccc2[nH]1 [Example 54]
< 200		CN(C)c1nc(Nc2ccc(OC(F)F)cc2)ncc1COc1ccc2[nH]c(=O)ccc2c1 [Example 55]
< 200		FC(F)(F)Oc1ccc(Nc2ncc(COc3ccc4[nH]ncc4c3)cn2)cc1 [Example 56]
< 200		FC(F)Oc1ccc(Nc2ncc(COc3ccc4[nH]ncc4c3)cn2)cc1 [Example 57]
< 200		O=C1Nc2ccc(OCc3cnc(Nc4ccc(OC(F)F)cc4)nc3)cc2CO1 [Example 58]
< 200		Oc1ccc(OCc2cnc(Nc3ccc(OC(F)F)cc3)nc2)nn1 [Example 59]
< 200		FC(F)Oc1ccc(Nc2ncc(COc3ccc4[nH]cnc4c3)cn2)cc1 [Example 60]
< 200		O=C1Nc2ccc(OCc3cnc(Nc4ccc(OC(F)(F)F)cc4)nc3)cc2CO1 [Example 61]
< 200		FC(F)Oc1ccc(Nc2ncc(COc3cn[nH]c3)cn2)cc1 [Example 63]
< 200		FC(F)(F)Oc1ccc(Nc2ncc(COc3ccc4[nH]ncc4c3Cl)cn2)cc1 [Example 64]
< 200		Nc1nc2ccc(OCc3cnc(Nc4ccc(OC(F)F)cc4)nc3)cc2s1 [Example 65]
< 200		FC(F)Oc1ccc(Nc2ncc(COc3ccc4[nH]ncc4c3Cl)cn2)cc1 [Example 66]
< 200		Cc1cc(OCc2cnc(Nc3ccc(OC(F)(F)F)cc3)nc2)cc2cn[nH]c12 [Example 67]
< 200		FC(F)(F)Oc1ccc(Nc2ncc(COc3ccc4[nH]nnc4c3)cn2)cc1 [Example 68]
< 200		FC(F)Oc1ccc(Nc2ncc(COc3ccc4[nH]nnc4c3)cn2)cc1 [Example 69]
< 200		Oc1ncc(OCc2cnc(Nc3ccc(OC(F)F)cc3)nc2)cn1 [Example 70]
< 200		O=c1[nH]c2ccc(OCc3cnc(Nc4ccc(OC(F)(F)F)cc4)nc3)cc2s1 [Example 71]
< 200		Fc1cc(Nc2ncc(COc3ccc4[nH]ncc4c3Cl)cn2)ccc1OC(F)F [Example 72]
< 200		Cc1cc(Nc2ncc(COc3ccc4[nH]ncc4c3Cl)cn2)ccc1OC(F)F [Example 73]
< 200		FC(F)Oc1ccc(Nc2ncc(COc3ccc4[nH]ncc4c3)cn2)cc1Cl [Example 75]
< 200		Cc1cc(Nc2ncc(COc3ccc4[nH]ncc4c3)cn2)ccc1OC(F)F [Example 76]
< 200		O=C1Nc2ccc(OCc3cnc(Nc4ccc(OC(F)F)c(Cl)c4)nc3)cc2CO1 [Example 77]
< 200		Cc1cc(Nc2ncc(COc3cc4ccc(=O)[nH]c4cc3F)cn2)ccc1OC(F)F [Example 78]

IC50 (read-out: Rating (hNR2B IC50)) [nM]	IC50 (read-out: hNR2B IC50) [nM]	Structure (SMILES)
< 200		FC(F)Oc1ccc(Nc2ncc(COc3cnc4[nH]ncc4c3)cn2)cc1 [Example 79]
< 200		O=c1[nH]c2ccc(OCc3cnc(Nc4ccc(OC(F)(F)F)cc4)nc3)cc2o1 [Example 80]
< 200		Cc1cc(Nc2ncc(COc3ccc4c(c3)COC(=O)N4)cn2)ccc1OC(F)F [Example 82]
< 200		Cc1ccc(Nc2ncc(COc3ccc4c(c3)COC(=O)N4)cn2)cc1F [Example 83]
< 200		O=C1Nc2ccc(OCc3cnc(Nc4ccc(OC(F)F)c(F)c4)nc3)cc2CO1 [Example 84]
< 200		O=C1Cc2cc(OCc3cnc(Nc4ccc(OC(F)F)c(F)c4)nc3)ccc2N1 [Example 85]
< 200		Cc1cc(Nc2ncc(COc3ccc4c(c3)CC(=O)N4)cn2)ccc1OC(F)F [Example 86]
< 200		Cc1cc(Nc2ncc(COc3ccc(Nc4nccs4)cc3)cn2)ccc1OC(F)F [Example 87]
< 200		O=c1ccc2cc(OCc3cnc(Nc4ccc(OC(F)F)c(Cl)c4)nc3)c(F)cc2[nH]1 [Example 88]
< 200		FC(F)Oc1ccc(Nc2ncc(COc3cnc4[nH]ccc4c3)cn2)cc1Cl [Example 90]
< 200		Fc1cc(Nc2ncc(COc3ccc(Nc4nccs4)cc3)cn2)ccc1OC(F)F [Example 91]
< 200		FC(F)Oc1ccc(Nc2ncc(COc3ccc(Nc4nccs4)cc3)cn2)cc1Cl [Example 92]
	1250	O=c1ccc2cc(OCc3ccnc(Nc4ccc(Cl)cc4)n3)ccc2[nH]1 [Example 93, 6-((2-(4-chlorophenylamino)pyrimidin-4-yl)methoxy)quinolin-2(1H)-one]
1000 to 10000		O=c1ccc2cc(OCc3ccnc(NCc4ccc(Cl)cc4)n3)ccc2[nH]1 [Example 94]
	36	O=c1ccc2cc(OCc3cc(Nc4ccc(Cl)c(Cl)c4)ncn3)ccc2[nH]1 [Example 95, 6-((6-(3,4-dichlorophenylamino)pyrimidin-4-yl)methoxy)quinolin-2(1H)-one trifluoroacetate]
< 200		O=c1ccc2cc(OCc3cc(Nc4ccc(Cl)cc4)ncn3)ccc2[nH]1 [Example 96]
1000 to 10000		O=c1ccc2cc(OCc3cc(NCc4ccc(Cl)c(Cl)c4)ncn3)ccc2[nH]1 [Example 97]
	> 3000	O=c1ccc2cc(OCc3cnc(Nc4ccc(Cl)c(Cl)c4)cn3)ccc2[nH]1 [Example 98, 6-((5-(3,4-dichlorophenylamino)pyrazin-2-yl)methoxy)quinolin-2(1H)-one]
1000 to 10000		O=c1ccc2cc(OCc3cncc(Nc4ccc(Cl)cc4)n3)ccc2[nH]1 [Example 99]
201 to 1000		O=c1ccc2cc(OCc3cncc(NCc4ccc(Cl)cc4)n3)ccc2[nH]1 [Example 100]
1000 to 10000		O=c1ccc2cc(OCc3cncc(NCc4ccc(Cl)c(Cl)c4)n3)ccc2[nH]1 [Example 101]
	4600	O=c1ccc2cc(Oc3ccc(NCc4ccc(OC(F)(F)F)cc4)nn3)ccc2[nH]1 [Example 102, 6-(6-(4-(trifluoromethoxy)benzylamino)pyridazin-3-yloxy)quinolin-2(1H)-one]
	183	FC(F)Oc1ccc(Nc2ncc(CCc3ccc4[nH]ncc4c3)cn2)cc1Cl [Example 104, 5-(2-(1H-indazol-5-yl)ethyl)-N-(3-chloro-4-(difluoromethoxy)phenyl)pyrimidin-2-amine]
	2.5	O=c1ccc2cc(CCc3cnc(Nc4ccc(OC(F)F)c(Cl)c4)nc3)ccc2[nH]1 [Example 105, 6-(2-(2-(3-chloro-4-(difluoromethoxy)phenylamino)pyrimidin-5-yl)ethyl)quinolin-2(1H)-one]
	35	Oc1ccc(CCc2cnc(Nc3ccc(OC(F)F)cc3)nc2)cc1 [Example 107, 4-(2-(2-((4-(difluoromethoxy)phenyl)amino)pyrimidin-5-yl)ethyl)phenol]
